PMC12680861, “Comparative analysis of LJ-4378 and tirzepatide in mouse models of obesity and weight regain” (Archives of Pharmacal Research, 2025)
Like-named read-outs stand apart in the source and are kept apart here.

How the values were obtained:
[1] = Plasma protein binding, Rapid Equilibrium Dialysis (RED); type: in vitro ADME, human; details: human, plasma (100%, sodium citrate), pH 7.4, 37 °C, read-out: Plasma free fraction (% Free), Human
Procedure: (§1) The plasma protein binding of LJ-4378 was evaluated using the Rapid Equilibrium Dialysis (RED) method with 100% plasma from human (Biochemed, BC22089NCP), rat (Innovative, IRT-N), and mouse (Biochemed, 029-APSC-MP), all treated with sodium citrate as an anticoagulant. The RED device (ThermoFisher Scientific, #89809) and reusable base plate (ThermoFisher Scientific, #89811) were used with an 8 K MWCO membrane. Test compounds were added to plasma at a final concentration of 10 μM and dialyzed against phosphate-buffered saline (PBS, pH 7.4; Hyclone, #SH30256.01) at 37 °C for 4 h. After incubation, equal volumes of plasma and PBS samples were mixed with blank PBS and blank plasma, respectively, followed by the addition of acetonitrile containing chlorpropamide (TRC, C424800) as the internal standard. […] All measurements were performed in duplicate with a deviation of less than 15% between replicates. The free fraction (% Free) was calculated as (concentration in buffer chamber/concentration in plasma chamber) × 100, and the bound fraction (% Bound) was obtained by subtracting % Free from 100. In cases where measurements were unstable, deviations greater than 15% were allowed.

[2] = as above; type: in vitro ADME, mouse; details: mouse, plasma (100%, sodium citrate), pH 7.4, 37 °C, read-out: Plasma free fraction (% Free), Mouse
Procedure: as §1

[3] = as above; type: in vitro ADME, rat; details: rat, plasma (100%, sodium citrate), pH 7.4, 37 °C, read-out: Plasma free fraction (% Free), Rat
Procedure: as §1

CYP2C19 = CYP2C19 (Homo sapiens, UniProt P33261); experiment: CYP enzyme inhibition in pooled human liver microsomes (S-mephenytoin substrate); details: human, pooled human liver microsomes, pH 7.4
Procedure: (§2) Cytochrome 450 (CYP) enzyme inhibition was evaluated using pooled human liver microsomes (Corning, #452117). […] Substrates and corresponding metabolites for each CYP isoform were as follows: phenacetin and acetaminophen for CYP1A2 (Sigma Aldrich, #77440 and A7085, respectively), diclofenac and 4'-hydroxydiclofenac for CYP2C9 (Sigma Aldrich, D6899; TRC, H825225), S-mephenytoin and 4'-hydroxymephenytoin for CYP2C19 (Sigma Aldrich, UC175; Santacruz, sc210197), dextromethorphan and dextrorphan for CYP2D6 (Sigma Aldrich, #81091 and UC205), and midazolam and 1'-hydroxymidazolam for CYP3A4 (KFDA; Sigma Aldrich, UC430).
(§3) Samples were preincubated at 37 °C for 5 min, and the reaction was initiated by the addition of the NADPH regeneration system, followed by incubation at 37 °C for 15 min. The reaction was terminated by adding acetonitrile containing the internal standard, and centrifuged at 15,000 rpm for 5 min at 4 °C. The supernatant was analyzed by LC–MS/MS using a Nexera XR system (Shimadzu, Japan) coupled with a TSQ Vantage mass spectrometer (Thermo, USA). […] Metabolites were quantified in multiple reaction monitoring (MRM) mode with Xcalibur software (version 4.4).
(§4) All experiments were performed in duplicate with variability ≤ 15%. The percent activity of each CYP enzyme was calculated based on metabolite formation relative to the no-inhibitor control.

CYP2C9 = CYP2C9 (Homo sapiens, UniProt P11712); experiment: CYP enzyme inhibition in pooled human liver microsomes (diclofenac substrate); details: human, pooled human liver microsomes, pH 7.4
Procedure: as §2, §3, §4

CYP1A2 = target: T1, CYP1A2 (Homo sapiens, UniProt P05177); experiment: CYP enzyme inhibition in pooled human liver microsomes (phenacetin substrate); details: human, pooled human liver microsomes, pH 7.4
T1 sequence (P05177 1-516): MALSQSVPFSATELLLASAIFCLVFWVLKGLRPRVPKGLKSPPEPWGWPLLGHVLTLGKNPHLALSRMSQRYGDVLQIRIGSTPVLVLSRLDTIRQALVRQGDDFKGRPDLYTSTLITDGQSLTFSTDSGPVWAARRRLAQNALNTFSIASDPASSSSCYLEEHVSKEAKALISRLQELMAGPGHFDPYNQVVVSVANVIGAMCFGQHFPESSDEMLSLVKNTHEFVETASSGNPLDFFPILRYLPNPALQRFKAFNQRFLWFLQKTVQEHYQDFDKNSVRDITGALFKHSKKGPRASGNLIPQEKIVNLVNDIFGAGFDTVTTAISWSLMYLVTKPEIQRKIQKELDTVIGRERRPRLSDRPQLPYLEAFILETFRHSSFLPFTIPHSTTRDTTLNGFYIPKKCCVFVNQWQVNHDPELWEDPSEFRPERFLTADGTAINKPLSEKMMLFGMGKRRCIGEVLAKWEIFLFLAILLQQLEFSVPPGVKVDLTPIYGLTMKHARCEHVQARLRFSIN
Procedure: as §2, §3, §4

Plasma stability assay [4] = type: in vitro ADME, human; details: human, plasma (100%, sodium citrate), 37 °C
Procedure: (§5) The plasma stability of LJ-4378 was evaluated using 100% plasma obtained from human (Biochemed, BC22089NCP, sodium citrate), rat (Innovative, IRT-N, sodium citrate), and mouse (Biochemed, 029-APSC-MP, sodium citrate). 10 Μm of LJ-4378 was added to the plasma, and samples were incubated at 37 °C for 0, 30, and 120 min. At each time point, an aliquot of the plasma was removed and mixed with acetonitrile containing the internal standard, chlorpropamide (TRC, C424800). […] The supernatant was injected into the LC–MS/MS system for quantification of the remaining compound. Analysis was performed using a Nexera XR system (Shimadzu, Japan) with a TSQ Vantage mass spectrometer (Thermo, USA). […] Data acquisition was conducted in MRM mode using Xcalibur software (version 4.4). All experiments were performed in duplicate with a deviation within 15%, and the percentage of compound remaining (% Remaining) at each time point was calculated relative to the non-incubated control sample. For quality control, procaine and enalapril (each at 10 μM) were used as reference compounds and were confirmed to fall within acceptable ranges.

Plasma stability assay [5] = type: in vitro ADME, mouse; details: mouse, plasma (100%, sodium citrate), 37 °C; for remaining at 0.5 h, 10 μM: 30 min, read-out: % Remaining compound, Mouse plasma 30 min; for remaining at 2 h, 10 μM: 120 min, read-out: % Remaining compound, Mouse plasma 120 min
Procedure: as §5

Plasma stability assay [6] = type: in vitro ADME, rat; details: rat, plasma (100%, sodium citrate), 37 °C; for remaining at 0.5 h, 10 μM: 30 min, read-out: % Remaining compound, Rat plasma 30 min; for remaining at 2 h, 10 μM: 120 min, read-out: % Remaining compound, Rat plasma 120 min
Procedure: as §5

Sequence of CYP2C19 (P33261 whole entry, canonical isoform): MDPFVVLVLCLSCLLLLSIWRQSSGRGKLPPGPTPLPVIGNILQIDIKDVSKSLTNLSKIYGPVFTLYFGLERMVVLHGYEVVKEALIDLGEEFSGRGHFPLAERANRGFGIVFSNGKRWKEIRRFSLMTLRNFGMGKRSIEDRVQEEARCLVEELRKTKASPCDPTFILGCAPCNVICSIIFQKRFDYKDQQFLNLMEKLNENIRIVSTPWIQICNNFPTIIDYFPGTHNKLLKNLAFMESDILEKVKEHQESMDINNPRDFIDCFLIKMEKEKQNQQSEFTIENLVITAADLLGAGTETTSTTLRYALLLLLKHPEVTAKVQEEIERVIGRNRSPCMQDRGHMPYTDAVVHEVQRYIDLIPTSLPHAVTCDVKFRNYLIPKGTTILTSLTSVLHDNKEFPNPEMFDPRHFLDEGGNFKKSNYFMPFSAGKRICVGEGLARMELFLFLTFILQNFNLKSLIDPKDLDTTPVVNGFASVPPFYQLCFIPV
Sequence of CYP2C9 (P11712 whole entry): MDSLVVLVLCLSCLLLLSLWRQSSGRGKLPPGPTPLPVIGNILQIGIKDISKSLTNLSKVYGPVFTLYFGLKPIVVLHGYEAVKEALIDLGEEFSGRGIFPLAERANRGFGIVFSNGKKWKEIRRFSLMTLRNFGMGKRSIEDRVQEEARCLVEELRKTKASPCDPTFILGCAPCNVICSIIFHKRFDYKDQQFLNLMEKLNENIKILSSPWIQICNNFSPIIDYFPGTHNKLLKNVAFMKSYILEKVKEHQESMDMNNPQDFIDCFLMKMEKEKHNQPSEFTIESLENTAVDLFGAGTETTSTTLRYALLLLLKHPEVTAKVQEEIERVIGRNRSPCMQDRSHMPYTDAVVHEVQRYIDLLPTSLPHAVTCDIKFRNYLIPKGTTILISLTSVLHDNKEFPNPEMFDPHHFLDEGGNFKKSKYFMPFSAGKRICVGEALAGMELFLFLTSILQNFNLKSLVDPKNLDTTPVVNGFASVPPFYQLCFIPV

fraction unbound at 4 h, 10 μM [1] | fraction unbound at 4 h, 10 μM [2] | fraction unbound at 4 h, 10 μM [3] | remaining at 0.5 h, 10 μM (Plasma stability assay [5]) [%] | remaining at 2 h, 10 μM (Plasma stability assay [5]) [%] | remaining at 0.5 h, 10 μM (Plasma stability assay [6]) [%] | remaining at 2 h, 10 μM (Plasma stability assay [6]) [%] | Structure (SMILES) | further results
0.006 | 0.062 | 0.01 |  |  |  |  | CC(=O)CC(c1ccccc1)c1c(O)c2ccccc2oc1=O (stereo not drawn) [Warfarin] | 
 |  |  |  |  |  |  | CC(=O)N1CCN(c2ccc(OCC3COC(Cn4ccnc4)(c4ccc(Cl)cc4Cl)O3)cc2)CC1 (stereo not drawn) [Ketoconazole, ketoconazole, reference compound] | activity at 15 min, 10 µM (CYP2C19): > 100%; activity at 15 min, 10 µM (CYP2C9): 98%; activity at 15 min, 10 µM (CYP1A2): 98.3%
 |  |  | 66 | 26.3 | 34.5 | 1.4 | CCOC(=O)[C@H](CCc1ccccc1)N[C@@H](C)C(=O)N1CCC[C@H]1C(=O)O [Enalapril, enalapril] | remaining at 0.5 h, 10 μM (Plasma stability assay [4]; 30 min, read-out: % Remaining compound, Human plasma 30 min): > 100%; remaining at 2 h, 10 μM (Plasma stability assay [4]; 120 min, read-out: % Remaining compound, Human plasma 120 min): 95.9%
 |  |  | 7 | < 1 | 85.2 | 45.2 | CCN(CC)CCOC(=O)c1ccc(N)cc1 [Procaine, procaine] | remaining at 5 min, 10 μM (Plasma stability assay [4]; 5 min (printed in the 30 min column), read-out: % Remaining compound, Human plasma 5 min): 1.2%; remaining at 10 min, 10 μM (Plasma stability assay [4]; 10 min (printed in the 120 min column), read-out: % Remaining compound, Human plasma 10 min): < 1%
0.359 | 0.297 | 0.222 |  |  |  |  | C[C@@H]1C[C@H]2[C@@H]3CCC4=CC(=O)C=C[C@]4(C)[C@@]3(F)[C@@H](O)C[C@]2(C)[C@@]1(O)C(=O)CO [Dexamethasone] | 
